Assay results reported in patent US20240262822A1, “WDR5 INHIBITORS AND MODULATORS” (Vanderbilt University, priority 2021, published 2024).
Where two headings read alike, the source gives them in different places.

Key:
[1] = test system: MV4:11 human cancer cell lines; assay: Cellular viability / anti-proliferative activity, CellTiter-Glo, 5 day protocol; type: cell-based; conditions: Homo sapiens, MV4-11, 120 h, 5 day incubation
Method: Anti-proliferative activity using MLL-harboring cell lines. MV-4-11 and K562 cells are grown in IMDM media supplemented with 10% FBS and 1% penicillin/streptomycin, Molm-13 cells are cultured in RPMI-1640 media supplemented with 10% FBS and 1% penicillin/streptomycin. Viability assays are performed by dispensing 200 cells at 7200 cells/mL into each well of an opaque 384-well plate and adding compounds at the indicated concentrations in a final volume of 32 μL and a final concentration of DMSO of 0.3% for all samples. A certain range of compound concentrations is made through a series of 2-fold dilutions starting 30 μM at the highest, total 22 dilutions. After a set incubation period, 5 day protocol, the viability of cells in each well is assessed using the CellTiter-Glo assay (Promega), read on a 96 Microplane Luminometer (Cytation 3, BioTek). Serial dilutions of each cell type are performed in all assays to generate standard curves and the final densities of cells are determined within the dynamic range of the instrument. GI50 values are calculated based on XLfit software (IDBS, Guildford, UK) with Sigmoidal Dose-Response Model. Each compound is tested in minimum of two replicates. Data are expressed as mean.

[2] = molecular target: T1, WDR5 (Homo sapiens, UniProt P61964); assay: Time Resolved-Fluorescence Energy Transfer (TR-FRET) competition assay, displacement of 10mer-Thr-FAM probe from His-tagged WDR5; type: binding; conditions: WDR5-His tag 2 nM, 10mer-Thr-FAM 150 nM, 60 minutes at room temperature
T1 construct: WDR5-His Tag (A23, residues 24-334) is expressed and purified in our lab; made in house
Excerpt: Excess 10mer-Thr-FAM probe was utilized with His-tagged WDR5 in conjunction with a commercial anti-His antibody containing a Terbium label. The LanthaScreen™ Elite Tb-anti-HIS Antibody from ThermoFisher Scientific was used for this purpose. This Tb-anti-HIS has an excitation/emission of 340 nm and 490 nm, respectively. The 10mer-Thr-FAM probe when bound to WDR5 will undergo a FRET interaction with the Tb-anti-HIS and emit at 520 nm. […] WDR5-His Tag (A23, residues 24-334) is expressed and purified in our lab in sufficient quantities for screening. 10mer-Thr-FAM peptide is used at 150 nM. WDR5-His tag protein is used at 2 nM. A source plate is prepared using an Echo Liquid Handler, which distributes the compounds to the assay plate (white, flat-bottom; OptiPlate) in a 10-point, 5-fold dilution schemes with a top concentration of 5 μM, in a final volume of 20 μL. A final target (WDR5)/Tb-Ab concentration of 2 nM/1 nM is dispensed from appropriate stock solutions, respectively. The final DMSO concentration in each well of the assay plate is 1% or lower. The plate is covered, shielded from light, and incubated for 60 minutes at room temperature with rocking. 10mer-Thr-FAM and Anti-His terbium antibody fluorescence is then measured on a Biotek Cytation 3 at excitation wavelength of 340 nm, and emission wavelengths of 495 nm and 520 nm. Working buffer conditions contain 1× Phosphate Buffered Saline, 300 mM NaCl, 0.5 mM TCEP, 0.1% CHAPS, at pH 7.2. TR-FRET signal is plotted and IC50 and Ki values are calculated according to the formula of Wang Z. FEBS Lett (1996) 3, 245.
where […] is the concentration of the free inhibitor at 50% inhibition, [L]50 is the concentration of the free labeled ligand at 50% inhibition, [P]0 is the concentration of the free protein at 0% inhibition, Kd represents the dissociation constant of the FITC-MLL or 10mer-Thr-FAM probe for WDR5. Total fluorescence is also measured, to rule out compounds that are inherently fluorescent or able to act as quenchers in the assay. TR-FRET binding assay

[3] = MV4:11 cells, read-out: GI50 for representative compounds on cellular proliferation of MV4:11 human cancer cell lines
[4] = read-out: Ki for Exemplified Compounds for Inhibition of WDR5 by TR-FRET assay
[5] = MV4;11 cells, read-out: GI50 for additional WDR5 inhibitor compounds on cellular proliferation of MV4;11 human cancer cell lines
[6] = read-out: Ki for additional WDR5 inhibitor compounds for Inhibition of WDR5 by TR-FRET assay

For `COc1cc2c(N3CCc4c(cc(Cn5ccnc5)cc4-c4cn(C)nc4C(F)(F)F)C3=O)nc(C)nc2cc1F` [Example 53, 7-((1H-Imidazol-1-yl)methyl)-2-(7-fluoro-6-methoxy-2-methylquinazolin-4-yl)-5-(1-methyl-3-(trifluoromethyl)-1H-pyrazol-4-yl)-3,4-dihydroisoquinolin-1(2H)-one], the GI50 [1, 3] was under 20 nM and the Ki [2, 4] was under 0.02 nM.

For `CCc1cc2c(N3CCc4c(cc(Cn5ccnc5)cc4-c4cn(C)nc4C(F)(F)F)C3=O)ccnc2c(NC)n1` [Example 9, 7-((1H-Imidazol-1-yl)methyl)-2-(6-ethyl-8-(methylamino)-1,7-naphthyridin-4-yl)-5-(1-methyl-3-(trifluoromethyl)-1H-pyrazol-4-yl)-3,4-dihydroisoquinolin-1(2H)-one], the GI50 [1, 3] was 102 nM and the Ki [2, 4] was under 0.02 nM.

`COc1cc(OC)c2ncnc(N3CCc4c(cc(Cn5ccnc5)cc4-c4cn(C)nc4C(F)(F)F)C3=O)c2c1` [Example 50, 7-((1H-Imidazol-1-yl)methyl)-2-(6,8-dimethoxyquinazolin-4-yl)-5-(1-methyl-3-(trifluoromethyl)-1H-pyrazol-4-yl)-3,4-dihydroisoquinolin-1(2H)-one] showed a GI50 [1, 3] of under 20 nM and a Ki [2, 4] of 0.022 nM.

`COc1cc2nc(C)nc(N3CCc4c(cc(Cn5ccnc5)cc4-c4ccc(F)cc4C)C3=O)c2cc1OC` [Example 66, 7-((1H-Imidazol-1-yl)methyl)-2-(6,7-dimethoxy-2-methylquinazolin-4-yl)-5-(4-fluoro-2-methylphenyl)-3,4-dihydroisoquinolin-1(2H)-one] showed a GI50 [1, 3] of 38 nM and a Ki [2, 4] of 0.02 nM.

With `CCc1cc2c(N3CCc4c(cc(Cn5ccnc5)cc4-c4cn(C)nc4C(F)(F)F)C3=O)ncnc2cc1OC` [Example 43, 7-((1H-Imidazol-1-yl)methyl)-2-(6-ethyl-7-methoxyquinazolin-4-yl)-5-(1-methyl-3-(trifluoromethyl)-1H-pyrazol-4-yl)-3,4-dihydroisoquinolin-1(2H)-one] the GI50 [1, 3] was under 20 nM and the Ki [2, 4] was under 0.02 nM.

Molecule `COc1cc2nncc(N3CCc4c(cc(Cn5ccnc5)cc4-c4cn(C)nc4C(F)(F)F)C3=O)c2cc1OC` [Example 49, 7-((1H-Imidazol-1-yl)methyl)-2-(6,7-dimethoxycinnolin-4-yl)-5-(1-methyl-3-(trifluoromethyl)-1H-pyrazol-4-yl)-3,4-dihydroisoquinolin-1(2H)-one] has a GI50 [1, 3] of under 20 nM and a Ki [2, 4] of under 0.02 nM.

`COCCOc1cc2ncnc(N3CCc4c(cc(Cn5ccnc5)cc4-c4cn(C)nc4C(F)(F)F)C3=O)c2cc1OC` [Example 25, 7-((1H-Imidazol-1-yl)methyl)-2-(6-methoxy-7-(2-methoxyethoxy)quinazolin-4-yl)-5-(1-methyl-3-(trifluoromethyl)-1H-pyrazol-4-yl)-3,4-dihydroisoquinolin-1(2H)-one] gave a GI50 [1, 3] of 310 nM and a Ki [2, 4] of 0.036 nM.

With `CCc1cc2c(N3CCc4c(cc(Cn5ccnc5)cc4-c4cn(C)nc4C(F)(F)F)C3=O)ccnc2c(N2CCCC2)n1` [Example 34, 7-((1H-Imidazol-1-yl)methyl)-2-(6-ethyl-8-(pyrrolidin-1-yl)-1,7-naphthyridin-4-yl)-5-(1-methyl-3-(trifluoromethyl)-1H-pyrazol-4-yl)-3,4-dihydroisoquinolin-1(2H)-one] the GI50 [1, 3] was 75 nM and the Ki [2, 4] was under 0.02 nM.

`COc1cc2c(N3CCc4c(cc(Cn5ccnc5)cc4-c4cn(C)nc4C(F)(F)F)C3=O)ncnc2cc1O` [Example 23, 7-((1H-Imidazol-1-yl)methyl)-2-(7-hydroxy-6-methoxyquinazolin-4-yl)-5-(1-methyl-3-(trifluoromethyl)-1H-pyrazol-4-yl)-3,4-dihydroisoquinolin-1(2H)-one] was tested, and the GI50 [1, 3] was 1280 nM and the Ki [2, 4] was 0.025 nM.

For `CCN(C)c1nc(N2CCc3c(cc(Cn4ccnc4)cc3-c3cn(C)nc3C(F)(F)F)C2=O)c2cc(OC)c(OC)cc2n1` [Example 62, 7-((1H-Imidazol-1-yl)methyl)-2-(2-(ethyl(methyl)amino)-6,7-dimethoxyquinazolin-4-yl)-5-(1-methyl-3-(trifluoromethyl)-1H-pyrazol-4-yl)-3,4-dihydroisoquinolin-1(2H)-one], the GI50 [1, 3] was 29 nM and the Ki [2, 4] was under 0.02 nM.

For `CCc1cc2c(N3CCc4c(cc(Cn5ccnc5)cc4-c4cn(C)nc4C(F)(F)F)C3=O)ccnc2c(COC)n1` [Example 52, 7-((1H-Imidazol-1-yl)methyl)-2-(6-ethyl-8-(methoxymethyl)-1,7-naphthyridin-4-yl)-5-(1-methyl-3-(trifluoromethyl)-1H-pyrazol-4-yl)-3,4-dihydroisoquinolin-1(2H)-one], the GI50 [1, 3] was 80 nM and the Ki [2, 4] was 0.03 nM.

`COc1cc(N(C)C)c2nccc(N3CCc4c(cc(Cn5ccnc5)cc4-c4cn(C)nc4C(F)(F)F)C3=O)c2c1` [Compound B-35] was tested, and the GI50 [1, 5] was 76 nM and the Ki [2, 6] was under 0.02 nM.

With `CCc1cc2c(N3CCc4c(cc(Cn5ccnc5)cc4-n4nc(C)cc4C(F)(F)F)C3=O)ccnc2c(OC)n1` [Example 47, 7-((1H-Imidazol-1-yl)methyl)-2-(6-ethyl-8-methoxy-1,7-naphthyridin-4-yl)-5-(3-methyl-5-(trifluoromethyl)-1H-pyrazol-1-yl)-3,4-dihydroisoquinolin-1(2H)-one] the GI50 [1, 3] was 296 nM and the Ki [2, 4] was 0.024 nM.

`CCOc1nc(CC)cc2c(N3CCc4c(cc(Cn5ccnc5)cc4-c4cn(C)nc4C(F)(F)F)C3=O)ccnc12` [Example 36, 7-((1H-Imidazol-1-yl)methyl)-2-(8-ethoxy-6-ethyl-1,7-naphthyridin-4-yl)-5-(1-methyl-3-(trifluoromethyl)-1H-pyrazol-4-yl)-3,4-dihydroisoquinolin-1(2H)-one] was tested, and the GI50 [1, 3] was under 20 nM and the Ki [2, 4] was under 0.02 nM.

Molecule `CCc1cnc2c(c1)[C@@H](N1CCc3c(cc(Cn4ccnc4)cc3-c3cn(C)nc3C(F)(F)F)C1=O)CCO2` [Example 11, (S)-7-((1H-Imidazol-1-yl)methyl)-2-(6-ethyl-3,4-dihydro-2H-pyrano[2,3-b]pyridin-4-yl)-5-(1-methyl-3-(trifluoromethyl)-1H-pyrazol-4-yl)-3,4-dihydroisoquinolin-1(2H)-one] has a GI50 [1, 3] of under 20 nM and a Ki [2, 4] of under 0.02 nM.

In the case of `CCc1cc(NC(=O)CC2CN(C(=O)C3CCOCC3)C2)c2nccc(N3CCc4c(cc(Cn5ccnc5)cc4-c4cn(C)nc4C(F)(F)F)C3=O)c2c1` [Compound B-233], the GI50 [1, 5] is reported as 26 nM and the Ki [2, 6] is reported as under 0.02 nM.

For `COc1cc(N2C[C@H]3CN(C)C[C@H]3C2)c2nc(C)cc(N3CCc4c(cc(Cn5ccnc5)cc4-c4cn(C)nc4C(F)(F)F)C3=O)c2c1` [Compound B-197], the GI50 [1, 5] was under 20 nM and the Ki [2, 6] was 0.02 nM.

In the case of `CCOc1cc2ncnc(N3CCc4c(cc(Cn5ccnc5)cc4-c4cn(C)nc4C(F)(F)F)C3=O)c2cc1OC` [Example 29, 7-((1H-Imidazol-1-yl)methyl)-2-(7-ethoxy-6-methoxyquinazolin-4-yl)-5-(1-methyl-3-(trifluoromethyl)-1H-pyrazol-4-yl)-3,4-dihydroisoquinolin-1(2H)-one], the GI50 [1, 3] is reported as 164 nM and the Ki [2, 4] is reported as 0.032 nM.

Work on `COc1cc2c(N3CCc4c(cc(Cn5ccnc5)cc4-c4cn(C)nc4C(F)(F)F)C3=O)ccnc2c(OC)n1` [Example 12, 7-((1H-Imidazol-1-yl)methyl)-2-(6,8-dimethoxy-1,7-naphthyridin-4-yl)-5-(1-methyl-3-(trifluoromethyl)-1H-pyrazol-4-yl)-3,4-dihydroisoquinolin-1(2H)-one] yielded a GI50 [1, 3] of 42 nM and a Ki [2, 4] of under 0.02 nM.
